ChEMBL document CHEMBL1201862, “PubChem BioAssay data set” (2004)
Calls of active or inactive are those of the source.

Key:
INS1 = experiment: INS-1E survival protection against cytokine death – cell-based, luminescence, retest, dose response (AID 449756); assay type: functional; conditions: Rattus norvegicus;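 note: cell death triggered by IL-1 beta plus TNF-alpha plus IFN-gamma mixture; protective hits raise ATP signal compared with cytokine alone wells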
Exodeoxyribonuclease V = biological target: T1, Exodeoxyribonuclease V (Escherichia coli (strain K12), UniProt P04993+P07648+P08394); experiment: RecBCD inhibition via phage-restricted bacterial growth – absorbance, V66 E. coli, mutant T4 phage, counter-screen for AddAB inhibitor project, dose response (AID 492957); assay type: functional, cell-based, Escherichia coli str. K-12 substr. MG1655
T1 sequence (P04993 whole entry): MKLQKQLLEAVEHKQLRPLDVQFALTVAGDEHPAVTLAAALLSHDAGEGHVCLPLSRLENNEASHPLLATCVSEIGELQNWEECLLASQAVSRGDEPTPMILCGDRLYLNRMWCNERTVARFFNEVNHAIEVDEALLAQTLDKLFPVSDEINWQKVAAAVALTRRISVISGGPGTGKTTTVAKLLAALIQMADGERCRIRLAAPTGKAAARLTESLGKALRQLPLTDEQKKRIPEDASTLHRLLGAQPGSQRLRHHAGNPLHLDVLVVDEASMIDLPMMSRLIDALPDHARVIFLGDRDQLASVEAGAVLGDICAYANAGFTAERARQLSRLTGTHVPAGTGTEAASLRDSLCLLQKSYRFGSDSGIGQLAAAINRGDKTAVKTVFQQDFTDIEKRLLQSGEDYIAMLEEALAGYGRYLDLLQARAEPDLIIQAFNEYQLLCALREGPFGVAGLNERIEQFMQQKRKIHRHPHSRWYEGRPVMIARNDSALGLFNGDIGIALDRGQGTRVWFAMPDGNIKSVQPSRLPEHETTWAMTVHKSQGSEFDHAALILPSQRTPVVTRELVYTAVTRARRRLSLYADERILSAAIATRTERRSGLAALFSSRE
T1 sequence (P07648 whole entry): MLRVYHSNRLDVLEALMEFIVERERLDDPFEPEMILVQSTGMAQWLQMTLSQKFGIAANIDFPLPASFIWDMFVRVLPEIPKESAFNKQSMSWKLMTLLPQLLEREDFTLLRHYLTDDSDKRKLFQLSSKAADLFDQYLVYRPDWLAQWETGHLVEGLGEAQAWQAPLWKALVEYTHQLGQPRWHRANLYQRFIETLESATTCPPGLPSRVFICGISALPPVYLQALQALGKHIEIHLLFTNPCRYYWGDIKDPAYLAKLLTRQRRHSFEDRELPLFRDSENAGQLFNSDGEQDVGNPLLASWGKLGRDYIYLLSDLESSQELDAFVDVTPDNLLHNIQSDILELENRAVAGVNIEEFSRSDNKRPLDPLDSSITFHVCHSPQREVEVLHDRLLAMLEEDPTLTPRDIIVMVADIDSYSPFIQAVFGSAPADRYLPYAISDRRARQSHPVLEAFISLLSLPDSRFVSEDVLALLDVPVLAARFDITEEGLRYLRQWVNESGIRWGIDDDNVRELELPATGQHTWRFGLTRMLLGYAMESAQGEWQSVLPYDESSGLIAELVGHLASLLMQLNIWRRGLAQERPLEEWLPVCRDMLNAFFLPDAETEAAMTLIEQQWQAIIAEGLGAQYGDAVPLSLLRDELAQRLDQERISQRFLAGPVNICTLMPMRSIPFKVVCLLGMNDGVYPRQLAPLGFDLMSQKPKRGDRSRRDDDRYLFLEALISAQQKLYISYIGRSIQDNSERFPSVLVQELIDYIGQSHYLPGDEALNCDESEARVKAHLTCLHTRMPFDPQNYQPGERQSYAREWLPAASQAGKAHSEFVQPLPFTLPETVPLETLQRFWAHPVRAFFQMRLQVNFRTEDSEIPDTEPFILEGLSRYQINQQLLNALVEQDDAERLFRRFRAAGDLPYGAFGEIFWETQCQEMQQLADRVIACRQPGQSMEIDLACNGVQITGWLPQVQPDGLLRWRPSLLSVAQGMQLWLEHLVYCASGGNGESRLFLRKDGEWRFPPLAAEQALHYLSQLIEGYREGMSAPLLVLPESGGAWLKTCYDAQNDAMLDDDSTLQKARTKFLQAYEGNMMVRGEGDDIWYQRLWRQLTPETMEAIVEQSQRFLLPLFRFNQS
T1 sequence (P08394 whole entry): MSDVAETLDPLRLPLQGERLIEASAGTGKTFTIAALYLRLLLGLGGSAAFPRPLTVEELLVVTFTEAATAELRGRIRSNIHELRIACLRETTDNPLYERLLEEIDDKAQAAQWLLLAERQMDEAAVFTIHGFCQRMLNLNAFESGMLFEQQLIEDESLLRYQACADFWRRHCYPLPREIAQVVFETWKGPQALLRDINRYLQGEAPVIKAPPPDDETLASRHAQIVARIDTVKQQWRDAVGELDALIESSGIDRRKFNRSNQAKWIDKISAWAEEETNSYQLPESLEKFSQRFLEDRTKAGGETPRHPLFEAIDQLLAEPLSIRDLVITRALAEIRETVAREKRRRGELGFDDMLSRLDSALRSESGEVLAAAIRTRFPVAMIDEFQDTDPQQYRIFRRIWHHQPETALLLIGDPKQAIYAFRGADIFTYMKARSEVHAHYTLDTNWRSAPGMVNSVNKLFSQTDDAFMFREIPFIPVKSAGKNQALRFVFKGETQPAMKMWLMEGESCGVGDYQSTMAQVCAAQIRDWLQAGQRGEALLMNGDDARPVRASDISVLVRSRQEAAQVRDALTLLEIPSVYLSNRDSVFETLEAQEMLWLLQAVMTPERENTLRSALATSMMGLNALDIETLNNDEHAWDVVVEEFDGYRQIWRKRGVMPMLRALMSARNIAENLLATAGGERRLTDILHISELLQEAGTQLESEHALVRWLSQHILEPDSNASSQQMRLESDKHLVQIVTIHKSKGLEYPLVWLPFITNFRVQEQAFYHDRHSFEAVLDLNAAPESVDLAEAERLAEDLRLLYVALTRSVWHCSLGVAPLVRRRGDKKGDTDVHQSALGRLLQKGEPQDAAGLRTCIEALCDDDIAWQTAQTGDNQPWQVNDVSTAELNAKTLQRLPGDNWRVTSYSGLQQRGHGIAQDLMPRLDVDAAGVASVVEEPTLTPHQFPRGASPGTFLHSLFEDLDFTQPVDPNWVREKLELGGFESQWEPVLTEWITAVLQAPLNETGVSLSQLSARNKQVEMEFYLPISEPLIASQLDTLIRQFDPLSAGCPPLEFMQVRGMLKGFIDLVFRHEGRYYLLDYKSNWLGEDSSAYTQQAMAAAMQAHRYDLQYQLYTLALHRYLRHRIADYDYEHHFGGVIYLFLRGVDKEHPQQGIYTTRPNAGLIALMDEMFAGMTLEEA

In the case of `Cc1ccc(NC(=O)C2=C(c3ccccc3)S(=O)(=O)CCS2(=O)=O)cc1`, the AC50 (INS1) is reported as 6.54 µM (active).

For `O=C(CC(O)(C(F)(F)F)C(F)(F)F)Nc1ccc(Cl)c(Cl)c1`, the AC50 (INS1) was 2.44 µM (active) and the IC50 (Exodeoxyribonuclease V) was 44 µM (inactive).

With `O=C(CNc1cccc2ccccc12)N/N=C/c1ccc([N+](=O)[O-])o1` the AC50 (INS1) was 5.58 µM (active) and the IC50 (Exodeoxyribonuclease V) was > 118 µM (inactive).
